Assay results taken from patent US12583824B2 (Genzyme Corporation, priority 2019, dated 2026).

Target: T1, CFTR in primary human bronchial epithelial cells from a ΔF508 homozygous CF donor (CF-HBE cells) (Homo sapiens, UniProt P13569, DEL508-508)
T1 construct: Primary human bronchial epithelial cells from a ΔF508 homozygous CF donor; host or cells: primary human bronchial epithelial cells (CF-HBE), ΔF508 homozygous donor
Assay: TECC24 recording analysis of CFTR-mediated transepithelial chloride transport (AUC fold over DMSO)
Assay type: cell-based
Details: 3 μM test agent, CF-HBE cells cultured 48 hours at 36.5° C.; ratio of test agent AUC of forskolin-stimulated IEQ divided by vehicle (DMSO) AUC
Procedure: Example 31: TECC24 AUC Fold Over DMSO @ 3 μM
The effects of a test agent on CFTR-mediated transepithelial chloride transport was measured using TECC24 recording analysis. Test agents were solubilized in DMSO. Solubilized test agents were mixed with incubation medium containing DMEM/F12, Ultroser G (2%; Crescent Chemical, catalog #67042), Hyclone Fetal Clone II (2%; GE Healthcare, catalog #SH30066.02), bovine brain extract (0.25%; Lonza, catalog #CC-4098), insulin (2.5 μg/mL), IL-13 (10 ng/mL), hydrocortisone (20 nM), transferrin (2.5 μg/mL), triiodothyronine (500 nM), ethanolamine (250 nM), epinephrine (1.5 μM), phosphoethanolamine (250 nM), and retinoic acid (10 nM). Primary human bronchial epithelial cells from a ΔF508 homozygous CF donor (CF-HBE cells; from University of North Carolina Cystic Fibrosis Tissue Procurement Center), grown on Transwell HTS 24-well cell culture inserts (Costar, catalog #3378), were exposed to test agents or controls dissolved in incubation medium. The CF-HBE cells were cultured at 36.5° C. for 48 hours before TECC24 recordings were performed in the presence or absence of test agent, a positive control or vehicle (DMSO).
Following incubation, the transwell cell culture inserts containing the test agent or control-treated CF-HBE cells were loaded onto a TECC24 apparatus (TECC v7 or MTECC v2; EP Design) to record the transepithelial voltage (VT) and resistance (TEER) using 4 AgCl electrodes per well configured in current-clamp mode. The apical and basolateral bath solutions both contained (in mM) 140 NaCl, 5 KCl, 2 CaCl2), 1 MgCl2, 10 Hepes, and 10 glucose (adjusted to pH 7.4 with NaOH). To inhibit basal Na+ absorption, the ENaC inhibitor benzamil (10 μM) was added to the bath. Then, the adenylate cyclase activator, forskolin (10 μM), was added to the bath to activate CFTR. The forskolin-stimulated Cl-transport was halted by addition of bumetanide (20 μM), an inhibitor of the basolateral chloride co-transporter NKCC1, to the bath to confirm that the detected signal was chloride dependent. VT and TEER recordings were digitally acquired at routine intervals using TECC or MTECC software (EP Design). VT and TEER were transformed into equivalent transepithelial Cl-current (IEQ), and the Area Under the Curve (AUC) of the IEQ time course between forskolin and bumetanide addition is generated using Excel (Microsoft). Efficacy is expressed as the ratio of the test agent AUC divided by vehicle AUC. EC50s based on AUC are generated using the non-linear regression log(agonist) vs. response function in Prism software (GraphPad) with Hill Slope fixed=1.
If a test agent increased the AUC of the forskolin-stimulated IEQ relative to vehicle in CF-HBE cells, and this increase was inhibited by bumetanide, then the test agent was considered a CFTR corrector.

T1 sequence (P13569 with tags, fused parts or gaps DEL508-508): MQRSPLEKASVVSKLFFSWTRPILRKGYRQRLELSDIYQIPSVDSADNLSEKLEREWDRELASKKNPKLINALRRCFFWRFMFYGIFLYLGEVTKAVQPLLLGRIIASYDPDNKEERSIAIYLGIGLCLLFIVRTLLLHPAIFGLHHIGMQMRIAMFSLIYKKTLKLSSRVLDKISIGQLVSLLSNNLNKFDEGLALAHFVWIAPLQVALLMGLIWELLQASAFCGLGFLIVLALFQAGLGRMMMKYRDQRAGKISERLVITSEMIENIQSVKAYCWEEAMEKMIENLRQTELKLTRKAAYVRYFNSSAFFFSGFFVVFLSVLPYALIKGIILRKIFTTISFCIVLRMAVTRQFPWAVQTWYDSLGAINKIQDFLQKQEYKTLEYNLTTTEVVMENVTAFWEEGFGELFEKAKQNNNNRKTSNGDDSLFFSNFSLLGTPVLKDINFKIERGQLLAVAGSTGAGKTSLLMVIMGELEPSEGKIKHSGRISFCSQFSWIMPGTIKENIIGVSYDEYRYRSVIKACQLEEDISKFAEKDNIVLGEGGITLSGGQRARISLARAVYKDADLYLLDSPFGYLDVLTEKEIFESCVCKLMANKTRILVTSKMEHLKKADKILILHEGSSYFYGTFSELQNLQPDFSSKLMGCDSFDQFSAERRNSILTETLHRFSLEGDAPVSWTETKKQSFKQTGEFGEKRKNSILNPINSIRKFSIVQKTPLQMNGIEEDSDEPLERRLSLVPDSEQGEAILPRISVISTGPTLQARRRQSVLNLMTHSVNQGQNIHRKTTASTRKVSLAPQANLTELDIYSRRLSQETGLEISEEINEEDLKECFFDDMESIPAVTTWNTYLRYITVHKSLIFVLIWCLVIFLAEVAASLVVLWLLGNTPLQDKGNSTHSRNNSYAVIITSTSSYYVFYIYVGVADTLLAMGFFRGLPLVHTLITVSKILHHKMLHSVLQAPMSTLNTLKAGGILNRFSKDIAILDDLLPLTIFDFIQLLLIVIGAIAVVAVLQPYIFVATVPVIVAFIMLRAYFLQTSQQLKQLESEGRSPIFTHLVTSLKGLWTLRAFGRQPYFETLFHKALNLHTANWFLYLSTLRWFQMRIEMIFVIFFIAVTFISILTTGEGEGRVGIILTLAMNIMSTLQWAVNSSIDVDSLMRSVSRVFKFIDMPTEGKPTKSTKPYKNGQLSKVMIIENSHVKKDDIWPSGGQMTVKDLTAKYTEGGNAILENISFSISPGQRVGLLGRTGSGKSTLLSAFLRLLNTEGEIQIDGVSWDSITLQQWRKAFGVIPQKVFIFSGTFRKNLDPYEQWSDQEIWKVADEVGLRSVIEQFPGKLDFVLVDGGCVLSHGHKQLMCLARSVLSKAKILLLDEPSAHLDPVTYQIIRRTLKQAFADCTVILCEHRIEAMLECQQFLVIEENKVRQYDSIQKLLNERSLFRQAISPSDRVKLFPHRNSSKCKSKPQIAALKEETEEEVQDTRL

Row | SMILES | TECC24 AUC vs. DMSO (@3 μM)
1 | CC(C)c1ccccc1-c1nc(NS(=O)(=O)c2cccc(N)c2)ccc1-c1cccc(OCCC(C)(C)C)c1 [Example 16, 3-amino-N-(5-(3-(3,3-dimethylbutoxy)phenyl)-6-(2-isopropylphenyl)pyridin-2-yl)benzenesulfonamide] | A (“A “refers to AUC > 5)
2 | CC(C)(C)COc1cc(-c2ccc(NS(=O)(=O)c3cccc(N)c3)nc2-c2ccc(C(F)(F)F)cc2)ccc1Cl [Example 17, 3-amino-N-(5-(4-chloro-3-(neopentyloxy)phenyl)-6-(4-(trifluoromethyl)phenyl)pyridin-2-yl)benzenesulfonamide] | C (“C” refers to AUC < 2)
3 | CC(C)c1cc(Cl)ccc1-c1nc(NS(=O)(=O)c2ccccc2)ccc1-c1cccc(OC(F)(F)F)c1 [Example 19, N-(6-(4-chloro-2-isopropylphenyl)-5-(3-(trifluoromethoxy)phenyl)pyridin-2-yl)benzenesulfonamide] | A (“A “refers to AUC > 5)
4 | Cc1cccc(C)c1-c1nc(NS(=O)(=O)c2cccc(NC3CC(C)(O)C3)c2)ccc1-c1cccc(OCC(C)(C)C(F)(F)F)c1 (stereo not shown) [Example 20] | A (“A “refers to AUC > 5)
5 | CCc1ccccc1-c1nc(NS(=O)(=O)c2cccc(N3CCCC(C)(C(=O)O)C3)n2)ccc1-c1cccc(OCC(F)(F)F)c1 (stereo not shown) [Example 21, 1-[6-[[6-(2-ethylphenyl)-5-[3-(2,2,2-trifluoroethoxy)phenyl]-2-pyridyl]sulfamoyl]-2-pyridyl]-3-methyl-piperidine-3-carboxylic acid] | A (“A “refers to AUC > 5)
6 | CC(C)(C)COc1cc(-c2cnc(NS(=O)(=O)c3ccccc3)nc2-c2ccc(C(F)(F)F)cc2)ccc1Cl [Example 22, 5-(4-chloro-3-(neopentyloxy)phenyl)-2-((phenylsulfonyl)-12-azaneyl)-4-(4-(trifluoromethyl)phenyl)pyrimidine] | C (“C” refers to AUC < 2)

Now from value to molecule:

Row | TECC24 AUC vs. DMSO (@3 μM) | SMILES
7 | B (“B” refers to AUC between 2-5) | CC(C)(C)COc1cc(-c2cnc(NS(=O)(=O)c3cccc(N)c3)nc2-c2ccc(C(F)(F)F)cc2)ccc1Cl [Example 23]
8 | C (“C” refers to AUC < 2) | CC(C)(C)COc1cc(-c2cnc(NS(=O)(=O)c3cccc(NS(C)(=O)=O)c3)nc2-c2ccc(C(F)(F)F)cc2)ccc1Cl [Example 24, N-(5-(4-chloro-3-(neopentyloxy)phenyl)-4-(4-(trifluoromethyl)phenyl)pyrimidin-2-yl)-3-(methylsulfonamido)benzenesulfonamide]
9 | C (“C” refers to AUC < 2) | CC(C)(C)COc1cc(-c2cnc(NS(=O)(=O)c3cccnc3)nc2-c2ccc(C(F)(F)F)cc2)ccc1Cl [Example 25, N-(5-(4-chloro-3-(neopentyloxy)phenyl)-4-(4-(trifluoromethyl)phenyl)pyrimidin-2-yl)pyridine-3-sulfonamide]
10 | C (“C” refers to AUC < 2) | CC(C)(C)COc1cc(-c2cnc(NS(=O)(=O)c3cccc(Cl)n3)nc2-c2ccc(C(F)(F)F)cc2)ccc1Cl [Example 26, 5-(4-chloro-3-(neopentyloxy)phenyl)-2-(((6-chloropyridin-2-yl)sulfonyl)-12-azaneyl)-4-(4-(trifluoromethyl)phenyl)pyrimidine]
